Measured values as given in paper PMC8944975, “Secretin Receptor as a Target in Gastrointestinal Cancer: Expression Analysis and Ligand Development” (Biomedicines, 2022).

Molecular target: human SCTR (Homo sapiens, UniProt P47872)
Experiment: agonist-induced β-arr2-GFP translocation
Type: cell-based
Design: expressed in transfected cells; host or cells: U2OS (human osteosarcoma), stably co-transfected with β-arrestin2-GFP
Settings: for β-arrestin2-GFP agonism efficacy / EC50: Supplementary Tables S1 and S2, decimal comma, '-' not detectable (Figure 4); for β-arrestin2-GFP agonism efficacy: % of wild-type secretin; for EC50: 20 min at 37 °C, mean of at least three independent experiments in duplicates, read-out: β-arrestin2-GFP agonism potency
Source text: U2OS-SCTR/β-arr2-GFP: human osteosarcoma cell line U2OS (purchased from ATCC/LGC Standards, Wesel, Germany) were stably transfected with plasmids encoding SCTR (Homo sapiens) and the fusion protein β-arrestin2-green fluorescent protein (GFP) (Rattus norvegicus-Aequorea victoria) (β-arr2-GFP).
To evaluate reactivity of human SCTR exposed to different ligand variants, intracellular translocation of a fusion protein of β-arrestin2 and green fluorescent protein was utilized. For evaluation of activation, receptor-mediated recruitment of cytoplasmic β-arr2-GFP was monitored through its translocation into condensed intracellular vesicles. The extent of translocation events was quantified by determining the increasing granularization of the intracellular fluorescence utilizing an automated high-throughput microscope in combination with computational algorithms to estimate potency (EC50) and efficacy, thus characterizing ligand-SCTR interaction. U2OS-SCTR/β-arr2-GFP cells were seeded in 96-well cell culture plates to 60–80% confluence. On the following day, preceding stimulation, cells were incubated for one hour in serum-free medium. Ligand variants were applied as serial dilutions in assay buffer C1. After preincubation, supernatant was discarded by tapping plates overhead repeatedly. For stimulation, 50 µL of ligand dilution was applied per well in duplicates and incubated for 20 min at 37 °C. Successively, cells were fixed by applying 4% buffered formaldehyde (Herbeta Arzneimittel, Berlin, Germany) for 10 min at room temperature and consecutively permeabilized for 10 min at room temperature with 0.1% TritonX-100 in PBS, containing DAPI (4′,6-Diamidin-2-phenylindol, SigmaAldrich, Deisenhofen, Germany, 1 µg/mL) to counterstain nuclei. Microscopic images were recorded by an IN Cell Analyzer 1000 (GE Healthcare, Reading, UK) with 20× magnification at 5 frames per well in a 96-well format. Image processing was performed with IN Cell Investigator software (GE Healthcare, Reading, UK), applying the provided granularity algorithm. The output of the analysis was indicated as vesicle area/cell and was utilized for calculation of concentration–response curves. Parameters derived from curve fitting included the concentration of half-maximal activity (EC50), and intrinsic activity. Intrinsic activity was normalized defining reaction to non-modified wild type secretin as the 100% curve maximum value.

Chain of human SCTR (P47872 23-440): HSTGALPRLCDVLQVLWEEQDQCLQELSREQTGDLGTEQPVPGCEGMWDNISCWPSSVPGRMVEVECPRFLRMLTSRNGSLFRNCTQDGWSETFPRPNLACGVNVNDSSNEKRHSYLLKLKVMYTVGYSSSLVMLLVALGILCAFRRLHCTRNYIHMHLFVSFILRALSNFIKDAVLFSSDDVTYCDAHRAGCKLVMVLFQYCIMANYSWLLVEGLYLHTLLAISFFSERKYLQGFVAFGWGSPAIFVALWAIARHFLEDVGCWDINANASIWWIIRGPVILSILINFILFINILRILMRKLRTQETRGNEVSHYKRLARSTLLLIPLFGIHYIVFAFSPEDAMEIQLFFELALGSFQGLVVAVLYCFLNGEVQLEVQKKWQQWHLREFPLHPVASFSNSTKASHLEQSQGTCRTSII

| Molecule | β-arrestin2-GFP agonism efficacy | EC50 (U2OS-SCTR/β-arr2-GFP cells) | SCTR activation (agonism) in the β-arr2-GFP translocation assay, in words (U2OS-SCTR/β-arr2-GFP cells) |
| --- | --- | --- | --- |
| HSDGTFTsELSRLREGARLQRLLQGLV [Peptide 92, D-amino acid substitution variant of human secretin] | 90,37 % Sec |  |  |
| CC(C)C[C@H](NC(=O)[C@H](CCCNC(=N)N)NC(=O)[C@H](C)NC(=O)CNC(=O)[C@H](CCC(=O)O)NC(=O)[C@H](CCCNC(=N)N)NC(=O)[C@H](CC(C)C)NC(=O)[C@H](CCCNC(=N)N)NC(=O)[C@H](CO)NC(=O)[C@H](CC(C)C)NC(=O)[C@H](CCC(=O)O)NC(=O)[C@H](CO)NC(=O)[C@@H](NC(=O)[C@H](Cc1ccccc1)NC(=O)[C@@H](NC(=O)CNC(=O)[C@H](CC(=O)O)NC(=O)[C@H](CO)NC(=O)[C@@H](N)Cc1c[nH]cn1)[C@@H](C)O)[C@@H](C)O)C(=O)N[C@@H](CCC(N)=O)C(=O)N[C@@H](CCCNC(=N)N)C(=O)N[C@@H](CC(C)C)C(=O)N[C@@H](CC(C)C)C(=O)N[C@@H](CCC(N)=O)C(=O)NCC(=O)N1CCC[C@H]1C(=O)N[C@H](C(=O)O)C(C)C [Peptide 84] | 95,03 % Sec | 72.6 nM |  |
| CC(C)C[C@H](NC(=O)[C@H](CCCNC(=N)N)NC(=O)[C@H](C)NC(=O)CNC(=O)[C@H](CCC(=O)O)NC(=O)[C@H](CCCNC(=N)N)NC(=O)[C@H](CC(C)C)NC(=O)[C@H](CCCNC(=N)N)NC(=O)[C@H](CO)NC(=O)[C@H](CC(C)C)NC(=O)[C@H](CCC(=O)O)NC(=O)[C@H](CO)NC(=O)[C@@H](NC(=O)[C@H](Cc1ccccc1)NC(=O)[C@@H](NC(=O)CNC(=O)[C@H](CC(=O)O)NC(=O)[C@H](CO)NC(=O)[C@@H](N)Cc1c[nH]cn1)[C@@H](C)O)[C@@H](C)O)C(=O)N[C@@H](CCC(N)=O)C(=O)N[C@@H](CCCNC(=N)N)C(=O)N[C@@H](CC(C)C)C(=O)N[C@@H](CC(C)C)C(=O)N[C@@H](CCC(N)=O)C(=O)NCC(=O)N[C@@H](CC(C)C)C(=O)N1CCC[C@H]1C(=O)O [Peptide 85] | 100,47 % Sec | 5.19 nM |  |
| CC(C)C[C@H](NC(=O)CNC(=O)[C@H](CCC(N)=O)NC(=O)[C@H](CC(C)C)NC(=O)[C@H](CC(C)C)NC(=O)[C@H](CCCNC(=N)N)NC(=O)[C@H](CCC(N)=O)NC(=O)[C@H](CC(C)C)NC(=O)[C@H](CCCNC(=N)N)NC(=O)[C@H](CCC(=O)O)NC(=O)CNC(=O)[C@H](CCC(=O)O)NC(=O)[C@H](CCCNC(=N)N)NC(=O)[C@H](CC(C)C)NC(=O)[C@H](CCCNC(=N)N)NC(=O)[C@H](CO)NC(=O)[C@H](CC(C)C)NC(=O)[C@H](CCC(=O)O)NC(=O)[C@H](CO)NC(=O)[C@@H](NC(=O)[C@H](Cc1ccccc1)NC(=O)[C@@H](NC(=O)CNC(=O)[C@H](CC(=O)O)NC(=O)[C@H](CO)NC(=O)[C@@H](N)Cc1c[nH]cn1)[C@@H](C)O)[C@@H](C)O)C(=O)N[C@H](C(=O)O)C(C)C [Peptide 70] | 104,77 % Sec | 2.26 nM |  |
| CC(C)C[C@H](NC(=O)CNC(=O)[C@H](CCC(N)=O)NC(=O)[C@H](CC(C)C)NC(=O)[C@H](CC(C)C)NC(=O)[C@H](CCCNC(=N)N)NC(=O)[C@H](CCC(N)=O)NC(=O)[C@H](CC(C)C)NC(=O)[C@H](CCCNC(=N)N)NC(=O)[C@H](C)NC(=O)CNC(=O)[C@H](CC(=O)O)NC(=O)[C@H](CCCNC(=N)N)NC(=O)[C@H](CC(C)C)NC(=O)[C@H](CCCNC(=N)N)NC(=O)[C@H](CO)NC(=O)[C@H](CC(C)C)NC(=O)[C@H](CCC(=O)O)NC(=O)[C@H](CO)NC(=O)[C@@H](NC(=O)[C@H](Cc1ccccc1)NC(=O)[C@@H](NC(=O)CNC(=O)[C@H](CC(=O)O)NC(=O)[C@H](CO)NC(=O)[C@@H](N)Cc1c[nH]cn1)[C@@H](C)O)[C@@H](C)O)C(=O)N[C@H](C(=O)O)C(C)C [Peptide 69] | 111,23 % Sec | 4.52 nM |  |
| GLP-2: structurally related glucagon-like peptide 2 [reference compound] |  |  | no SCTR activation |
| CC(C)C[C@H](NC(=O)[C@H](CCCNC(=N)N)NC(=O)[C@H](C)NC(=O)CNC(=O)[C@H](CCC(=O)O)NC(=O)[C@H](CCCNC(=N)N)NC(=O)[C@H](CC(C)C)NC(=O)[C@H](CCCNC(=N)N)NC(=O)[C@H](CO)NC(=O)[C@H](CC(C)C)NC(=O)[C@H](CCC(=O)O)NC(=O)[C@H](CO)NC(=O)[C@@H](NC(=O)[C@H](Cc1ccccc1)NC(=O)[C@@H](NC(=O)CNC(=O)[C@H](CC(=O)O)NC(=O)[C@H](CO)NC(=O)[C@@H](N)Cc1c[nH]cn1)[C@@H](C)O)[C@@H](C)O)C(=O)N[C@@H](CCC(N)=O)C(=O)N[C@@H](CCCNC(=N)N)C(=O)N[C@@H](CC(C)C)C(=O)N[C@@H](CC(C)C)C(=O)N[C@@H](CCC(N)=O)C(=O)N1CCC[C@H]1C(=O)N[C@@H](CC(C)C)C(=O)N[C@H](C(=O)O)C(C)C [Peptide 83] | 103,17 % Sec | 22.1 nM |  |
| CC(C)C[C@H](NC(=O)CNC(=O)[C@H](CCC(N)=O)NC(=O)[C@H](CC(C)C)NC(=O)[C@H](CC(C)C)NC(=O)[C@H](CCCNC(=N)N)NC(=O)[C@H](CCC(N)=O)NC(=O)[C@H](CC(C)C)NC(=O)[C@H](CCCNC(=N)N)NC(=O)[C@H](C)NC(=O)CNC(=O)[C@H](CCC(=O)O)NC(=O)[C@H](CCCNC(=N)N)NC(=O)[C@H](CC(C)C)NC(=O)[C@H](CCCNC(=N)N)NC(=O)[C@H](CO)NC(=O)[C@H](CC(C)C)NC(=O)[C@H](CCC(=O)O)NC(=O)[C@H](CO)NC(=O)[C@@H](NC(=O)[C@H](Cc1ccccc1)NC(=O)[C@@H](NC(=O)CNC(=O)[C@H](CC(=O)O)NC(=O)[C@H](CO)NC(=O)[C@H](N)Cc1c[nH]cn1)[C@@H](C)O)[C@@H](C)O)C(=O)N[C@H](C(=O)O)C(C)C [Peptide 86] | 107,20 % Sec |  |  |
| CC(C)C[C@H](NC(=O)CNC(=O)[C@H](CCC(N)=O)NC(=O)[C@H](CC(C)C)NC(=O)[C@H](CC(C)C)NC(=O)[C@H](CCCNC(=N)N)NC(=O)[C@H](CCC(N)=O)NC(=O)[C@H](CC(C)C)NC(=O)[C@H](CCCNC(=N)N)NC(=O)[C@H](C)NC(=O)CNC(=O)[C@H](CCC(=O)O)NC(=O)[C@H](CCCNC(=N)N)NC(=O)[C@H](CC(C)C)NC(=O)[C@H](CCCNC(=N)N)NC(=O)[C@H](CO)NC(=O)[C@H](CC(C)C)NC(=O)[C@H](CCC(=O)O)NC(=O)[C@H](CO)NC(=O)[C@@H](NC(=O)[C@H](Cc1ccccc1)NC(=O)[C@@H](NC(=O)CNC(=O)[C@H](CC(=O)O)NC(=O)[C@@H](CO)NC(=O)[C@@H](N)Cc1c[nH]cn1)[C@@H](C)O)[C@@H](C)O)C(=O)N[C@H](C(=O)O)C(C)C [Peptide 87] | 91,57 % Sec |  |  |
| CC(C)C[C@H](NC(=O)CNC(=O)[C@H](CCC(N)=O)NC(=O)[C@H](CC(C)C)NC(=O)[C@H](CC(C)C)NC(=O)[C@H](CCCNC(=N)N)NC(=O)[C@H](CCC(N)=O)NC(=O)[C@H](CC(C)C)NC(=O)[C@H](CCCNC(=N)N)NC(=O)[C@H](C)NC(=O)CNC(=O)[C@H](CCC(=O)O)NC(=O)[C@H](CCCNC(=N)N)NC(=O)[C@H](CC(C)C)NC(=O)[C@H](CCCNC(=N)N)NC(=O)[C@H](CO)NC(=O)[C@H](CC(C)C)NC(=O)[C@@H](CCC(=O)O)NC(=O)[C@H](CO)NC(=O)[C@@H](NC(=O)[C@H](Cc1ccccc1)NC(=O)[C@@H](NC(=O)CNC(=O)[C@H](CC(=O)O)NC(=O)[C@H](CO)NC(=O)[C@@H](N)Cc1c[nH]cn1)[C@@H](C)O)[C@@H](C)O)C(=O)N[C@H](C(=O)O)C(C)C [Peptide 93] | 100,40 % Sec |  |  |
| CC(C)C[C@H](NC(=O)CNC(=O)[C@H](CCC(N)=O)NC(=O)[C@H](CC(C)C)NC(=O)[C@H](CC(C)C)NC(=O)[C@H](CCCNC(=N)N)NC(=O)[C@H](CCC(N)=O)NC(=O)[C@H](CC(C)C)NC(=O)[C@H](CCCNC(=N)N)NC(=O)[C@H](C)NC(=O)CNC(=O)[C@H](CCC(=O)O)NC(=O)[C@H](CCCNC(=N)N)NC(=O)[C@H](CC(C)C)NC(=O)[C@H](CCCNC(=N)N)NC(=O)[C@H](CO)NC(=O)[C@@H](CC(C)C)NC(=O)[C@H](CCC(=O)O)NC(=O)[C@H](CO)NC(=O)[C@@H](NC(=O)[C@H](Cc1ccccc1)NC(=O)[C@@H](NC(=O)CNC(=O)[C@H](CC(=O)O)NC(=O)[C@H](CO)NC(=O)[C@@H](N)Cc1c[nH]cn1)[C@@H](C)O)[C@@H](C)O)C(=O)N[C@H](C(=O)O)C(C)C [Peptide 94] | 94,17 % Sec |  |  |
